According to PMC12081876, “Identification of PTGR2 inhibitors as a new therapeutic strategy for diabetes and obesity” (EMBO Molecular Medicine, 2025):
Values joined by “and” are separate entries in the source; they are usually repeats but may differ in a detail not shown here. Identical values can stand only once. One block for each compound: values may come before it.

What was measured:
mPPARγ-downstream genes = test: RT-qPCR of Glut4 and other mPPARγ-downstream genes in differentiated 3T3-L1 adipocytes; format: cell-based, mouse
Protocol: The cell lines, which were tested for mycoplasma contamination and authenticated, were purchased from the Bioresource Collection and Research Center, Taiwan. All cells were cultured at 37 °C, 5% CO2 in a humidified incubator. HEK293T cells were maintained in DMEM (cat. no. SH30003.02, HyClone) supplemented with 10% fetal bovine serum (FBS) (cat. no. 04-001-1A, Biological Industries) and 1% antibiotic/antimycotic solution (cat. no. SV30079.01, HyClone). 3T3-L1 preadipocytes were maintained at ~70% confluence in DMEM with 10% calf serum (cat. no. 16170078, Gibco) and 1% antibiotic/antimycotic solution. For adipocyte differentiation, confluent 3T3-L1 cells (defined as day 0) were exposed to an induction medium containing 10% FBS, 1 μM dexamethasone (cat. no. D4902, Sigma-Aldrich), and 1 μg/ml insulin (Humulin R, Eli Lilly) in DMEM with or without 0.5 mM isobutyl-methylxanthine (cat. no. sc-201188A, Santa Cruz Biotechnology) as indicated. After two days, the medium was replaced with DMEM containing 10% FBS and 1 μg/ml insulin and was replenished every two days until assay.
A total of 1 × 10^5 3T3-L1 preadipocytes were seeded in 6-well plates and differentiated for six days. The 3T3-L1 adipocytes were then harvested in 1 ml of REzol C&T (cat. no. PT-KP200CT, Protech), and total RNA was extracted according to the manufacturer’s instructions with slight modifications. Briefly, 200 μl of chloroform were added to 1 ml of sample in REzol, and samples were vigorously mixed by shaking for 30 s, followed by incubation at room temperature for 5 min. Then, samples were centrifuged at 12,000 × g for 15 min at 4 °C, and 400 μl of the upper aqueous phase were transferred to a new 1.5-ml tube. An equal volume of isopropanol was added. Samples were inverted several times for mixing and then centrifuged at 12,000 × g for 10 min at 4 °C. The RNA precipitate, which formed a pellet at the bottom of the 1.5-ml tube, was washed three times with 75% ethanol and air-dried for 15 min. Pellets were dissolved in RNase-free water. The concentration of RNA was measured using Nanodrop. cDNA was synthesized using a reverse transcription kit (cat. no. K1622, Thermo Scientific) using the oligo(dT)18 primers. RT-qPCR was performed in a 10-μl reaction with 50 ng cDNA and 0.2 μM primer using SYBR green reagent (cat. no. 11203ES08, YEASEN). Mouse peptidylprolyl isomerase A (Ppia) mRNA was used as the internal control. RT-qPCR reactions were performed using ABI 7900HT FAST (Applied Biosystems) and Sequence Detection Systems (SDS v2.3, Applied Biosystems). All qPCR reactions were run in duplicates. The primers used are listed in Appendix Table S3.

mPPARγ C313A = target: T1, mPPARγ C313A (Mus musculus, UniProt P37238, C313A); test: PPRE reporter assay in HEK293T cells, C313A mutant mPPARγ; format: cell-based, murine; set-up: key to PPRE reporter activity, Fig 1M replicates: luciferase activity normalized to TK reporter signal; details: for PPRE reporter activity, Fig 1M replicates: PPARg C313A
T1 construct: host or cells: HEK293T
T1 sequence (P37238 1-505 C313A): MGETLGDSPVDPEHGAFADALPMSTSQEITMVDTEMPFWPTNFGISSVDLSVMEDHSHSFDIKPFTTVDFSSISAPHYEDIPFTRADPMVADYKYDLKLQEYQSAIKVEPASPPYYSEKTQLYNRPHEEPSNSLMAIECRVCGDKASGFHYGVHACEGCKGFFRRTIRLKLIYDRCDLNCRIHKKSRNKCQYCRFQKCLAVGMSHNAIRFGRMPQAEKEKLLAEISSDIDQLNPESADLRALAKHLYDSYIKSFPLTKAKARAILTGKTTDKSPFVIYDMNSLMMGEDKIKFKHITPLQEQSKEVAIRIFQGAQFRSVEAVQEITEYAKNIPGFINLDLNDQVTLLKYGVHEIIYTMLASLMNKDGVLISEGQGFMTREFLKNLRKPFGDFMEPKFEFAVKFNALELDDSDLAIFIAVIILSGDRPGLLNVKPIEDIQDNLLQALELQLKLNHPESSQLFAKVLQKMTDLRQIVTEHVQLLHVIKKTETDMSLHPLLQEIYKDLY
Protocol: For PPRE reporter assay, HEK293T cells were seeded in 24-well plates at 1 × 10^5 cells/well. […] The luciferase activity was measured by Luc-Pair™ Duo-Luciferase HS Assay Kit (cat. no. LF600, Promega, USA) and normalized to the TK reporter signal.

[1] = tested on: HFHSD-fed obese C57BL6/J mice; test: Body composition (fat mass, lean mass, free water, total water); format: in vivo, mouse; set-up: Fat mass (Figure 5O) / lean mass (Figure 5O) / Free fluid (Figure 5O): unit not given beside the values; details: for body composition: fat mass / fluid retention (body composition): vs vehicle
[2] = 40 mg/kg/day ip, 3 weeks, HFHSD-fed mice
[3] = 40 mg/kg/day ip, HFHSD-fed mice, listed as 15kPGE2
[4] = 100 mg/kg/day oral, HFHSD-fed mice

- PPRE reporter activity, Fig 1M replicates (mPPARγ C313A; 1314dh-15kPGE2 5uM): 1.0835 and 0.6291 and 0.9127
- PPRE reporter activity, Fig 1M replicates (mPPARγ C313A; 1314dh-15kPGE2 10uM): 0.8254 and 0.8511 and 0.9733
Compound: CCCCCC(=O)CC[C@H]1[C@H](O)CC(=O)[C@@H]1C/C=C\CCCC(=O)O [13,14-dihydro-15-keto-PGE2]
- Adipoq RT-qPCR, Fig 1I replicates (mPPARγ-downstream genes; 13,14dh-15kPGE2 10μM): 1.319 and 1.153 and 1.286
- Cepba RT-qPCR, Fig 1H replicates (mPPARγ-downstream genes; 13,14dh-15kPGE2 10μM): 1.374 and 0.7769 and 0.716
- Acs RT-qPCR, Fig 1G replicates (mPPARγ-downstream genes; 13,14dh-15kPGE2 10): 1.301 and 1.081 and 1.404
- Cd36 RT-qPCR, Fig 1F replicates (mPPARγ-downstream genes; 13,14dh-15kPGE2 10): 1.404 and 1.223 and 0.9692
- Glut4 RT-qPCR, Fig 1C replicates (mPPARγ-downstream genes; 13,14dh-15kPGE2 10): 1.898 and 2.106 and 1.673
- Irs2 RT-qPCR, Fig 1D replicates (mPPARγ-downstream genes; 13,14dh-15kPGE2 10): 0.9456 and 0.6593 and 0.5678
- Sorbs1 RT-qPCR, Fig 1E replicates (mPPARγ-downstream genes; 13,14dh-15kPGE2 10): 1.1258 and 0.882 and 0.8066

- fluid retention (body composition) [1, 2]: without fluid retention
- PPRE reporter activity, Fig 1M replicates (mPPARγ C313A; 15kPGE2 1uM): 1.1721 and 1.0341 and 1.1068
- PPRE reporter activity, Fig 1M replicates (mPPARγ C313A; 15kPGE2 5uM): 0.9678 and 0.853 and 0.9258
- PPRE reporter activity, Fig 1M replicates (mPPARγ C313A; 15kPGE2 10uM): 0.6267 and 0.6796 and 0.8917
- PPRE reporter activity, mutant mPPARγ (C313A) (mPPARγ C313A; HEK293T): abolished
Compound: CCCCCC(=O)/C=C/[C@H]1[C@H](O)CC(=O)[C@@H]1C/C=C\CCCC(=O)O [15-keto-PGE2, 15-keto-prostaglandin E2]
- body composition: fat mass [1, 2]: reduced fat mass
- fat mass, Fig 2K, per mouse [1, 3]: 5.32 and 2.67 and 2.477 and 3.3 and 3.197 and 3.02 and 3.75 and 4.29 and 2.763 and 2.153 and 4.333 and 4.837 and 5.383 and 6.203
- free water, Fig 2K, per mouse [1, 3]: 2.353 and 2.46 and 2.333 and 2.08 and 2.14 and 2.517 and 2.187 and 2.62 and 2.42 and 2.197 and 2.23 and 2.307 and 2.467
- lean mass, Fig 2K, per mouse [1, 3]: 21.65 and 22.52 and 23.3767 and 19.74 and 20.2767 and 20.98 and 21.1733 and 22.3667 and 21.9633 and 21.94 and 20.5267 and 22.2733 and 21.2733 and 21.61
- total water, Fig 2K, per mouse ([1]; 40 mg/kg/day ip, HFHSD-fed mice, listed as 15kPGE2, in g (unit assumed)): 19.6733 and 20.4733 and 21.0367 and 17.8733 and 18.36 and 19.3 and 19.1267 and 20.5133 and 19.99 and 19.7467 and 18.65 and 20.1267 and 19.4833 and 19.7567
- Expression of Glut4 and other PPARγ-downstream genes (Irs2, Sorbs1, Cd36, Acs, Cebpa, Adipq) (mPPARγ-downstream genes; 3T3-L1 adipocytes): significantly increased
- Adipoq RT-qPCR, Fig 1I replicates (mPPARγ-downstream genes; 15kPGE2 1μM): 1.0415 and 1.163 and 1.453
- Cepba RT-qPCR, Fig 1H replicates (mPPARγ-downstream genes; 15kPGE2 1μM): 1.584 and 1.855 and 1.4452
- Adipoq RT-qPCR, Fig 1I replicates (mPPARγ-downstream genes; 15kPGE2 5μM): 2.354 and 2.11 and 2.081
- Cepba RT-qPCR, Fig 1H replicates (mPPARγ-downstream genes; 15kPGE2 5μM): 1.743 and 1.998 and 2.055
- Adipoq RT-qPCR, Fig 1I replicates (mPPARγ-downstream genes; 15kPGE2 10μM): 2.022 and 2.345 and 2.444
- Cepba RT-qPCR, Fig 1H replicates (mPPARγ-downstream genes; 15kPGE2 10μM): 2.675 and 2.195 and 2.109
- Acs RT-qPCR, Fig 1G replicates (mPPARγ-downstream genes; 15kPGE2 1): 1.074 and 1.165 and 0.8587
- Cd36 RT-qPCR, Fig 1F replicates (mPPARγ-downstream genes; 15kPGE2 1): 1.042 and 1.096 and 0.9399
- Glut4 RT-qPCR, Fig 1C replicates (mPPARγ-downstream genes; 15kPGE2 1): 1.309 and 1.263 and 1.257
- Irs2 RT-qPCR, Fig 1D replicates (mPPARγ-downstream genes; 15kPGE2 1): 1.164 and 1.43 and 1.116
- Sorbs1 RT-qPCR, Fig 1E replicates (mPPARγ-downstream genes; 15kPGE2 1): 1.214 and 1.379 and 1.0658
- Acs RT-qPCR, Fig 1G replicates (mPPARγ-downstream genes; 15kPGE2 5): 1.251 and 1.575 and 1.53
- Cd36 RT-qPCR, Fig 1F replicates (mPPARγ-downstream genes; 15kPGE2 5): 1.448 and 1.619 and 1.287
- Glut4 RT-qPCR, Fig 1C replicates (mPPARγ-downstream genes; 15kPGE2 5): 2.797 and 2.997 and 3.11
- Irs2 RT-qPCR, Fig 1D replicates (mPPARγ-downstream genes; 15kPGE2 5): 1.3621 and 1.275 and 1.386
- Sorbs1 RT-qPCR, Fig 1E replicates (mPPARγ-downstream genes; 15kPGE2 5): 1.2593 and 1.694 and 1.702
- Acs RT-qPCR, Fig 1G replicates (mPPARγ-downstream genes; 15kPGE2 10): 2.4974 and 2.133 and 2.44
- Cd36 RT-qPCR, Fig 1F replicates (mPPARγ-downstream genes; 15kPGE2 10): 2.006 and 2.309 and 1.915
- Glut4 RT-qPCR, Fig 1C replicates (mPPARγ-downstream genes; 15kPGE2 10): 7.333 and 8.598 and 7.543
- Irs2 RT-qPCR, Fig 1D replicates (mPPARγ-downstream genes; 15kPGE2 10): 2.078 and 2.094 and 1.997
- Sorbs1 RT-qPCR, Fig 1E replicates (mPPARγ-downstream genes; 15kPGE2 10): 2.379 and 1.942 and 1.911

Compound: Cc1[nH]c2nc(C(C)N3CCN(c4ccccc4)CC3)nn2c(=O)c1Cc1ccc(F)cc1 (centres unmarked) [BPRPT0245]
- body composition: fat mass [1, 4]: marginally significantly reduced fat mass
- fluid retention (body composition) [1, 4]: did not cause fluid retention
- Fat mass (Figure 5O) ([1]; individual animals): 18.94 and 14.08 and 8.33 and 20.43 and 12.66 and 22.41 and 12.99 and 8.39 and 11.25 and 10.06
- Free fluid (Figure 5O) ([1]; individual animals): 3.62 and 3.13 and 2.31 and 3.61 and 2.85 and 4.07 and 3.08 and 2.76 and 3.02 and 2.68
- lean mass (Figure 5O) ([1]; individual animals): 26.38 and 24.44 and 20.16 and 22.44 and 28.07 and 22.14 and 23.04 and 23.87 and 21.38
- Total water (Figure 5O) ([1]; individual animals, in g (unit assumed)): 24.73 and 22.68 and 18.44 and 23.16 and 20.8 and 26.52 and 20.79 and 21.19 and 22.12 and 19.78
